# Source: patent US20200288683A1, “LOSS OF FUNCTION RODENT MODEL OF SOLUTE CARRIER 39 MEMBER 5” (Regeneron Pharmaceuticals, Inc., priority 2019, published 2020)
# How the values were obtained:
# [1] = test system: LKB1/AMPK and AKT signaling pathways in human primary hepatocytes; experiment: Zinc activation of LKB1/AMPK and AKT signaling in human primary hepatocytes (immunoblot); type: cell-based; conditions: human primary hepatocytes (5-donor pool, HM CPP5, Thermofisher); acute; FIG. 12B
# Method: (§1) FIGS. 12A-12B. […] 1° Hu Hepatocytes* (5-donor pool): HM CPP5, Thermofisher.
# (§2) Liver protein was extracted using RIPA buffer (Cell signaling technology, Cat #9806) with Halt Protease & Phosphatase Inhibitor Cocktail (ThermoFisher Scientific, Cat #78440). Five microgram protein of each sample were separated in NuPAGE 4-12% Bis-Tris protein gel (Invitrogen, Cat # WG1403BOX), and transferred to nitrocellulose membrane using Trans-Blot® Turbo™ Transfer System (BioRad). Blotting was performed using the following Cell Signaling Technology antibodies: Phospho-AMPKa (Thr172) (Cell signaling technology, Cat #2535), AMPKa (Cell signaling technology, Cat #5831), 13-Actin (Sigma, Cat #5441), Phospho-AKT (Ser473) (Cell signaling technology, Cat #4060), AKT (Cell signaling technology, Cat #9272), Phospho-LKB1 (Ser428) (Cell signaling technology, Cat #3482), LKB1 (Cell signaling technology, Cat #3050), rabbit IgG conjugated to horseradish peroxidase (HRP) (Cell signaling technology, Cat #7074) and mouse IgG conjugated to HRP (Cell signaling technology, Cat #7076). Blots were developed using SuperSignal West Femto Substrate (ThermoFisher Scientific, Cat #34095). Signals were captured using ImageQuant LAS4000 (GE Healthcare).
# [2] = test system: LKB1/AMPK and AKT signaling pathways in human hepatoma HepG2 cells; experiment: Zinc activation of LKB1/AMPK and AKT signaling in HepG2 cells (immunoblot); type: cell-based; conditions: acute, FIG. 12A
# Method: as §1, §2
structure (smiles),measurement,setting,value
[Zn] [Zinc],activation of LKB1/AMPK and AKT signaling pathways,[1],activates LKB1/AMPK and AKT signaling pathways in dose dependent manner
same,activation of LKB1/AMPK and AKT signaling pathways,[2],activates LKB1/AMPK and AKT signaling pathways in dose dependent manner
